Results as given in patent US20180119123A1, “CRISPR/CAS-RELATED METHODS AND COMPOSITIONS FOR TREATING HIV INFECTION AND AIDS” (EDITAS MEDICINE, INC., priority 2015, published 2018).
Entries after “also recorded” stand apart in the source; their conditions may differ.

Tested on: CXCR4 locus
Assay: T7E1 assay for indels/NHEJ at the CXCR4 locus in Nucleofected CD34+ HSCs
Assay type: cell-based, human
Conditions: 40 nM UM171; S. aureus or S. pyogenes Cas9 and CXCR4 gRNA plasmids; 96 hours
Experimental: For the T7E1 assay, PCR amplicons are approximately 500-700 bp with the intended cut site placed asymmetrically in the amplicon. Following amplification, purification and size-verification of PCR products, DNA is denatured and re-hybridized by heating to 95° C. and then slowly cooling. Hybridized PCR products are then digested with T7 Endonuclease I (or other mismatch-sensitive enzyme) which recognizes and cleaves non-perfectly matched DNA. […] Digestion products may be visualized by gel electrophoresis or by capillary electrophoresis. The fraction of DNA that is cleaved (density of cleavage products divided by the density of cleaved and uncleaved) may be used to estimate a percent NHEJ using the following equation: % NHEJ=(1-(1-fraction cleaved)^1/2). The T7E1 assay is sensitive down to about 2-5% NHEJ.
Human CD34^+ HSCs cells from mobilized peripheral blood (AllCells) were thawed into StemSpan Serum-Free Expansion Medium (SFEM, StemCell Technologies) containing 100 ng/mL each of the following cytokines: human stem cell factor (SCF), thrombopoietin (TPO), and flt-3 ligand (FL) (all from Peprotech). […]
In order to detect indels at the CXCR4 locus, T7E1 assays were performed on CXCR4 locus-specific PCR products that were amplified from genomic DNA samples from Nucleofected™ CD34^+ HSCs and then calculated the percentage of NHEJ detected at the CXCR4 locus (FIG. 11B).

SMILES: Cn1nnc(-c2ccc3c(c2)[nH]c2nc(Cc4ccccc4)nc(N[C@H]4CC[C@H](N)CC4)c23)n1 [UM171, (1r,4r)-N1-(2-benzyl-7-(2-methyl-2H-tetrazol-5-yl)-9H-pyrimido[4,5-b]indol-4-yl)cyclohexane-1,4-diamine]
- Percentage of genome editing at the CXCR4 locus with UM171 pre-treatment versus without: higher percentage of genome editing at the CXCR4 locus; also recorded: increased genome editing at the CXCR4 locus
